Laboratory results: patent US7879817B2, “Hyaluronic acid derivative and drug containing the same” (priority 2004, dated 2011)

What was measured:
[1] = Sustained release property in the rabbit knee joint (residual ratio in synovial fluid and synovium); settings: intra-articular
[2] = test system: 1% silver nitrate-induced pain model; assay: 1% silver nitrate-induced pain model in rats
Text: As General anesthesia, inhalation of isoflurane (Forane (registered trade mark), Dainippon Pharmaceutical Co., Ltd., concentration 3.0%, flow rate 2.0 liters/min) filled in a small animal anesthetizer (TK-4, manufactured by BioMachinery Co., Ltd.) was employed.
Rats (Crj:SD (SPF), male, 6-weeks-old) were fixed in the supine position under ether anesthesia, and a wide area around the knee joint of the left hind paw was shaved with an electric clipper. After disinfecting the area around the joint by spraying 70% alcohol, 1% silver nitrate solution was administered into the knee joint cavity of the left hind paw at a dose of 50 μl/joint using a 29 G needle-tipped syringe for insulin use (manufactured by Terumo Corp.).
Regarding the administration method, as in the case of algesic substances, the area around the joint was disinfected by spraying 70% alcohol under inhalation anesthesia by isoflurane, and each test substance was administered into the knee joint cavity of the left hind paw at a dose of […] using a 29 G needle-tipped syringe for insulin use (n=5).
The walking of each group was visually observed and scored by using the following pain score table which was figured walking in score under blinded conditions.
Score • 0: Normal (includes nearly normal) • 1: Mild claudication • 2: Severe claudication • 3: Walking on three legs
In addition, the weight loading on the silver nitrate-injected paw (left hind paw) was measured by using a weighting activity analgesia meter (manufactured by Tokken Inc.), and the weight loading rate was calculated by dividing the measured value by the body weight.
Test substances were orally administered by using a sonde for oral administration to rat (manufactured by Fuchigami Kikai) at a dose of 1 ml/head.
In FIG. 6, the “Diclofenac Na (p.o.) 50 mg/kg” corresponds to the above-described (i) (high dose group), and the “Diclofenac Na (p.o.) 1 mg/kg” corresponds to the above-described (ii) (low dose group).

[3] = Appearance of the 1.0% by weight solution in PBS; format: physicochemical; settings: dissolved in PBS to 1.0% by weight
Filter pass through test = format: physicochemical; settings: 1.0% by weight in PBS, 0.45 μm porous filter (25 mm in diameter), 24° C., 5.0 kg/cm^2
Experimental: PBS in which each substance to be tested was dissolved to a concentration of 1.0% by weight was prepared. At a temperature of 24° C. under pressure of 5.0 kg/cm^2, each solution of the substances to be tested prepared in the following examples was passed through a 0.45 μm porous filter (25 mm in diameter), and the passed amount (ml) per 1 minute was measured A case in which 2 ml or more was passed is shown by “A”, and a case in which less than 2 ml was passed by “B”, and a case in which none passed by “C”.

[4] = intra-articular injection 24 hours after 1% silver nitrate, in comparison with PBS

Compound | analgesic effect (pain score, walking) [2, 4] | filter pass through test (passed amount per 1 minute) (Filter pass through test) | other results
CC(C(=O)O)c1cccc(C(=O)c2ccccc2)c1 (centres unmarked) [KP, ketoprofen] | – | – | time until KP disappeared from the synovial fluid and synovium [1]: ≤ 6 h; time until KP disappeared from the synovium [1]: ≤ 6 h
O=C(O)Cc1ccccc1Nc1c(Cl)cccc1Cl [diclofenac sodium, reference compound] | did not show significant effect in comparison with PBS | – | adverse effects observed ([2]; oral administration, high dose 50 mg/kg): positive fecal occult blood reaction, jaundice-like symptom and body weight loss were observed from the next day; analgesic effect (pain score, walking) ([2]; oral administration, high dose 50 mg/kg (1% suspension in 10% gum arabic, 1 ml/head)): showed analgesic effect; analgesic effect (pain score, walking) ([2]; oral administration, low dose 1 mg/kg (0.02% suspension in 10% gum arabic, 1 ml/head)): the effect was not found in comparison with the PBS intra-articular injection group
Aminoethanol-diclofenac-Introduced Sodium Hyaluronate (DS 14.7%) [Example 39] | showed remarkable analgesic effect | – | –
Aminopropanol-acetylsalicylic Acid-Introduced Sodium Hyaluronate [Example 11] | – | A (2 ml or more was passed) | appearance of the solution [3]: colorless and transparent liquid
Aminopropanol-diclofenac-Introduced Sodium Hyaluronate (65 kDa) Sodium (DS 17.1%) [Example 37] | showed diminished analgesic effect in comparison with the case of the molecular weight of 800,000 | – | –
Aminopropanol-diclofenac-Introduced Sodium Hyaluronate (DS 4.3%) [Example 35] | showed analgesic effect | – | –
Aminopropanol-diclofenac-Introduced Sodium Hyaluronate (DS 9.7%) [Example 36] | showed a remarkable analgesic effect in comparison with PBS | – | –
Aminopropanol-diclofenac-Introduced Sodium Hyaluronate [Example 19] | – | – | analgesic effect (pain score, walking) ([2]; intra-articular injection 24 hours after 1% silver nitrate, in comparison with PBS, listed as DS 18.2%): showed a remarkable analgesic effect in comparison with PBS; analgesic effect (pain score, walking) ([2]; intra-articular injection 24 hours after 1% silver nitrate, in comparison with PBS, listed as diclofenac-introduced hyaluronic acid derivative): showed the analgesic effect after the administration
Aminopropanol-felbinac-Introduced Hyaluronic Acid [Example 13] | – | A (2 ml or more was passed) | appearance of the solution [3]: colorless and transparent liquid
Aminopropanol-fenbufen-Introduced Hyaluronic Acid [Example 15] | – | A (2 ml or more was passed) | –
Aminopropanol-flurbiprofen-Introduced Sodium Hyaluronate [Example 9] | – | A (2 ml or more was passed) | appearance of the solution [3]: colorless and transparent liquid
Aminopropanol-ibuprofen-Introduced Sodium Hyaluronate [Example 7] | – | A (2 ml or more was passed) | –
Aminopropanol-mefenamic Acid-Introduced Hyaluronic Acid [Example 17] | – | A (2 ml or more was passed) | appearance of the solution [3]: colorless and transparent liquid
Diaminopropane-diclofenac-Introduced Sodium Hyaluronate (DS 18.1%) [Example 41] | had no effect on the test system of this example | – | –
